Test results published in patent US11241434B2, “Compositions and methods for improving cognition in a subject” (Yale University, priority 2013, dated 2022).

How the values were obtained:
[1] = tested on: Fyn (p-SFK) and eEF2 phosphorylation in cortical neurons; assay: Aβo-induced Fyn activation and eEF2 phosphorylation in cortical neurons (immunoblot); assay type: cell-based, mouse
Protocol: FIG. 2A: DIV21 cortical neurons from wild type or Prnp−/− mice were treated with or without Aβo for 5 min. Whole cell lysates were analyzed by anti-phospho-eEF2, anti-eEF2, or anti-PrP^C immunoblot. Aβo increased p-eEF2/eEF2 ratio to 210±20% of baseline in WT cultures (mean±sem, n=3), but there was no significant increase in Prnp−/− cultures. FIG. 2B: DIV21 cortical neurons from wild type mice were treated with the indicated human control or AD brain extracts (30 μg total protein/ml) for 5 min. Whole cell lysates were analyzed by anti-phospho-eEF2 or anti-eEF2 immunoblot. AD, but not control (Con), brain extracts increased p-eEF2/eEF2 ratio to 200±10% of untreated cultures (mean±sem, n=4). FIG. 2C: Wild type cortical neurons were treated with or without Aβo for 15 min. […] Whole cell lysates were analyzed by anti-phospho-SFK, anti-Fyn, anti-phospho-eEF2, or anti-eEF2 immunoblot. GAPDH served as a loading control. FIG. 2D: Quantification of phospho-eEF2 level normalized to eEF2 immunoreactivity from four independent experiments. Mean±sem; *, P<0.05, n.s., not significant; One-way ANOVA, with Tukey post-hoc pairwise comparisons.
Because spine turnover is dependent on protein translation machinery, and because both Aβo and Fyn have been linked to mGluR5, a downstream effector of mGluR5-regulated protein translation, the eukaryotic elongation factor 2 (eEF2), was considered. The eEF2 pathway is regulated by phosphorylation and is dysregulated in AD. A3o treatment of cortical neurons increases eEF2 phosphorylation at 5 min (FIG. 2A). Genetic analysis confirmed that the Aβo effect on eEF2 phosphorylation depends on PrP^C (FIG. 2A).
It was tested whether phosphorylation of eEF2 induced by Aβo depends on AZD0530-sensitive Fyn kinase activation. […] Thus, AZD0530 prevented Aβo/PrP-induced, Fyn-dependent neuronal signaling in vitro.

[2] = tested on: PS19 mice; assay: Immunohistochemistry of hippocampus of PS19 mice; assay type: in vivo, mouse
Text: FIG. 12A-12F illustrate reduced phospho-Tau accumulation in transgenic mice treated with AZD0530. FIG. 12A: Representative images of AT8 immunoreactivity in the dentate gyrus (DG) of the hippocampus in 9-month-old PS19 mice after 7 months of treatment with AZD0530 or Vehicle. Scale bar, […]. FIG. 12B: Quantification of AT8-positive area (%) in the dentate gyrus of the hippocampus in 9-month-old PS19 and WT mice after 7 months of treatment. Data are mean±SEM. n=7-10/group, each dot is one mouse. […] FIG. 12C: Representative images of immunofluorescent staining for AT8 in the CA1 of the hippocampus in 9-month-old PS19 and WT mice after 7 months of treatment. Scale bar, […]. FIG. 12D: Quantification of AT8-positive area in the CA1 of the hippocampus in 9-month-old PS19 and WT mice after 7 months of treatment. Data are mean±SEM. n=7-10/group, each dot is one mouse. […] FIG. 12E: Representative images of immunofluorescent staining for PHF1 in the CA1 of the hippocampus in 9-month-old PS19 and WT mice after 7 months of treatment. Scale bar, […]. FIG. 12F: Quantification of PHF1-positive area in the CA1 of the hippocampus in 9-month-old PS19 and WT mice after 7 months of treatment. Data are mean±SEM. n=7-10/group, each dot is one mouse.
FIGS. 13A-13D illustrate that chronic Fyn inhibition prevents glial activation in mutant Tau transgenic mice. FIG. 13A: Representative images of CD68 and Ibal double immunostaining in the CA3 region of the hippocampus from 9-month-old PS19 and WT mice after 7 months of treatment with AZD0530 or Vehicle. Scale bar, 20 μm. FIG. 13B: Quantification of CD68-positive area (%) within Ibal-immuoreative area in the CA3 segment of the hippocampus from 9-month-old PS19 and WT mice after 7 months of treatment. Data are as mean±SEM. n=7-10/group, each dot is one mouse. *p<0.05; One-way ANOVA with Dunnett's multiple comparisons test. FIG. 13C: Representative images of immunofluorescent staining GFAP in the dentate gyrus (DG) of the hippocampus in 9-month-old PS19 and WT mice after 7 months of treatment. Scale bar, 20 μm. FIG. 13D: Quantification of GFAP-positive area (%) in the dentate gyrus of the hippocampus in 9-month-old PS19 and WT mice after 7 months of treatment. n=7-10/group, each dot is one mouse. Data are mean±SEM. *p<0.05; One-way ANOVA with Dunnett's multiple comparisons test.
FIGS. 14A-14B illustrate the finding that loss of presynaptic marker SV2A in P301S Tau transgenic mice is rescued by Fyn inhibition. FIG. 14A: Representative images of immunofluorescent staining for SV2A in the CA3 region of the hippocampus from 9-month-old PS19 and WT mice after 7 months of treatment with AZD0530 or Vehicle. Dashed lines represent the divide between the cell body layer and synaptic region. The cell bodies in the image were used to capture similar ROI from each section. Scale bar, 20 μm. FIG. 14B: Quantification of SV2A-positive area (%) in the CA3 of the hippocampus in 9-month-old PS19 and WT mice after 7 months of treatment. Data are mean±SEM. n=7-10/group, each dot is one mouse.
FIGS. 19A-19D illustrate low magnification survey of gliosis in PS19 mice unaffected by AZD0530. FIG. 19A: Representative images of Ibal immunostaining in the hippocampus in 9-month-old PS19 and WT mice after 7 months of treatment. Scale bar, 100 m. FIG. 19B: Quantification of Ibal-positive area (%) in the hippocampus in 9-month-old PS19 and WT mice collected after 7 months of treatment. Data are mean±SEM. n=7-10/group. One-way ANOVA. FIG. 19C: Representative images of immunofluorescent staining GFAP in the hippocampus in 9-month-old PS19 and WT mice after 7 months of treatment. Scale bar, 100 μm. FIG. 19D: Quantification of GFAP-positive area (%) in the hippocampus in 9-month-old PS19 and WT mice collected after 7 months of treatment. Data are mean±SEM. n=7-10/group. One-way ANOVA.
Immunohistochemistry was performed as previously described (Kaufman et al., 2015, Ann Neurol 77:953-971) with slight modifications. […]

[3] = saracatinib 1 hour prior to Aβo, Aβo 15 min
[4] = 9-month-old PS19 mice, 7 months of treatment

SMILES: CN1CCN(CCOc2cc(OC3CCOCC3)c3c(Nc4c(Cl)ccc5c4OCO5)ncnc3c2)CC1 [saracatinib, N-(5-chloro-benzo[d][1,3]dioxol-4-yl)-7-(2-(4-methylpiperazin-1-yl)ethoxy)-5-(tetrahydro-2H-pyran-4-yloxy)quinazolin-4-amine]
- basal p-SFK levels ([1]; cortical neurons, saracatinib 1 hour): suppressed
- Aβo stimulation of target kinase (p-SFK) [1, 3]: fully prevented
- Aβo-induced increase of eEF2 phosphorylation [1, 3]: fully blocked
- AT8 (phospho-Tau Ser202/Thr205) immunoreactivity in DG and CA1 [2, 4]: significantly mitigates the increase
- CD68 immunoreactivity in Iba1-immunoreactive area of CA3 [2, 4]: almost completely prevented the increase
- SV2A immunoreactivity in CA3 [2, 4]: fully rescued the reduction
- astrocytosis (GFAP-immunoreactive area in dentate gyrus) [2, 4]: significantly attenuated
- gliosis (Iba1, GFAP) in hippocampus, low magnification survey [2, 4]: unaffected
- PHF-1 (phospho-Tau Ser396/Ser404) immunoreactive area in CA1 ([2]; 9-month-old PS19 mice, 7 months of treatment, vs Vehicle): significant decrease
- PY18 Tau levels ([2]; AZD0530-treated PS19 samples): no change
